According to patent US20180319810A1, “SUBSTITUTED BRIDGED UREA ANALOGS AS SIRTUIN MODULATORS” (GlaxoSmithKline Intellectual Property (No.2) Limited, priority 2014, published 2018):

Target: T1, SIRT1 (Homo sapiens, UniProt Q96EB6)
T1 sequence (Q96EB6 1-747): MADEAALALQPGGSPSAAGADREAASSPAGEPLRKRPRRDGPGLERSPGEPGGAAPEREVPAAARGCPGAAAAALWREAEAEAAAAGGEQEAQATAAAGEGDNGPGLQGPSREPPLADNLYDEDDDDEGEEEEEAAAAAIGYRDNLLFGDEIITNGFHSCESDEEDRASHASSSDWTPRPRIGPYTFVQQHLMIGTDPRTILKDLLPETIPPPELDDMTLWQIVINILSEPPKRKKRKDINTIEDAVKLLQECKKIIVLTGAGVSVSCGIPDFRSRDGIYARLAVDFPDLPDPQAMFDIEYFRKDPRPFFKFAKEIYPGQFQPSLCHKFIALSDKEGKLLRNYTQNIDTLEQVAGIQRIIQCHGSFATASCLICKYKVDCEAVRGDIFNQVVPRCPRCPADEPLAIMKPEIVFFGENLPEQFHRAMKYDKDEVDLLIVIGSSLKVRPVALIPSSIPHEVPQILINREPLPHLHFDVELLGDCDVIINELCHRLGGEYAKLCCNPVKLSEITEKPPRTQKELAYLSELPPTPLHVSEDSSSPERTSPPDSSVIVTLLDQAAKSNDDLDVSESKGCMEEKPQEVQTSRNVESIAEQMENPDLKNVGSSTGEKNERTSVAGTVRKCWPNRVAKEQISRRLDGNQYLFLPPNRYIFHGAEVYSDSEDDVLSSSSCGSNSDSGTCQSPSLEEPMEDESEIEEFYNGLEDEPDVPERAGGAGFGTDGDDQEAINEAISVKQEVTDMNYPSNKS
Experiment: Trp mass spectrometry assay of SIRT1 activation
Assay type: biochemical
Settings: Trp peptide Ac-R-H-K-K(Ac)-W-NH2 0.5 μM, 120 μM βNAD+, 10 nM SIRT1, 25 min, 25° C.

| TRP Activity (EC1.5, concentration of compound required to increase SIRT1 activity by 50% over control) | TRP MAX RESP (percent maximum fold activation relative to control) | Compound |
| --- | --- | --- |
| A (EC1.5<1 μM) | A (Fold activation ≥150%) | Cc1nc(-c2cccc(C(F)(F)F)c2)nc2c1N1CCC[C@@H](C1)N2C(=O)Nc1cnc(OC[C@H](O)CO)nc1 [Example 106, (9S)—N-(2-((R)-2,3-dihydroxypropoxy)pyrimidin-5-yl)-4-methyl-2-(3-(trifluoromethyl)phenyl)-8,9-dihydro-6H-5,9-methanopyrimido[4,5-b][1,4]diazocine-10(7H)-carboxamide] |
| A (EC1.5<1 μM) | A (Fold activation ≥150%) | Cc1nc(-c2cccc(C(F)(F)F)c2)nc2c1N1CCC[C@@H](C1)N2C(=O)Nc1cncc(OC[C@H](O)CO)c1 [Example 107, (9S)—N-(5-((R)-2,3-dihydroxypropoxy)pyridin-3-yl)-4-methyl-2-(3-(trifluoromethyl)phenyl)-8,9-dihydro-6H-5,9-methanopyrimido[4,5-b][1,4]diazocine-10(7H)-carboxamide] |
| A (EC1.5<1 μM) | A (Fold activation ≥150%) | Cc1nc(-c2cccc(C(F)(F)F)c2)nc2c1N1CCC[C@@H](C1)N2C(=O)Nc1cncc(OC[C@@H](O)CO)c1 [Example 109, (9S)—N-(5-((S)-2,3-dihydroxypropoxy)pyridin-3-yl)-4-methyl-2-(3-(trifluoromethyl)phenyl)-8,9-dihydro-6H-5,9-methanopyrimido[4,5-b][1,4]diazocine-10(7H)-carboxamide] |
| A (EC1.5<1 μM) | A (Fold activation ≥150%) | Cc1nc(-c2cccc(C(F)(F)F)c2)nc2c1N1CCC[C@@H](C1)N2C(=O)Nc1nccc(OC[C@@H](O)CO)n1 [Example 112, (9S)—N-(4-((S)-2,3-dihydroxypropoxy)pyrimidin-2-yl)-4-methyl-2-(3-(trifluoromethyl)phenyl)-8,9-dihydro-6H-5,9-methanopyrimido[4,5-b][1,4]diazocine-10(7H)-carboxamide] |
| A (EC1.5<1 μM) | A (Fold activation ≥150%) | Cc1nc(-c2cccc(C(F)(F)F)c2)nc2c1N1CCC[C@@H](C1)N2C(=O)Nc1ccc(OC[C@H](O)CO)cn1 [Example 113, (9S)—N-(5-((R)-2,3-dihydroxypropoxy)pyridin-2-yl)-4-methyl-2-(3-(trifluoromethyl)phenyl)-8,9-dihydro-6H-5,9-methanopyrimido[4,5-b][1,4]diazocine-10(7H)-carboxamide] |

More lines, now with the values behind:

| Compound | TRP Activity (EC1.5, concentration of compound required to increase SIRT1 activity by 50% over control) | TRP MAX RESP (percent maximum fold activation relative to control) |
| --- | --- | --- |
| O=C(Nc1nccc(OC[C@H](O)CO)n1)N1c2nc(-c3cccc(C(F)(F)F)c3)ncc2N2CCC[C@H]1C2 [Example 100, (9S)—N-(4-((R)-2,3-dihydroxypropoxy)pyrimidin-2-yl)-2-(3-(trifluoromethyl)phenyl)-8,9-dihydro-6H-5,9-methanopyrimido[4,5-b][1,4]diazocine-10(7H)-carboxamide] | A (EC1.5<1 μM) | A (Fold activation ≥150%) |
| O=C(Nc1ccc(OC[C@@H](O)CO)nc1)N1c2nc(-c3cccc(C(F)(F)F)c3)ncc2N2CCC[C@H]1C2 [Example 101, (9S)—N-(6-((S)-2,3-dihydroxypropoxy)pyridin-3-yl)-2-(3-(trifluoromethyl)phenyl)-8,9-dihydro-6H-5,9-methanopyrimido[4,5-b][1,4]diazocine-10(7H)-carboxamide] | A (EC1.5<1 μM) | A (Fold activation ≥150%) |
| O=C(Nc1cnc(OC[C@@H](O)CO)nc1)N1c2nc(-c3cccc(C(F)(F)F)c3)ncc2N2CCC[C@H]1C2 [Example 102, (9S)—N-(2-((S)-2,3-dihydroxypropoxy)pyrimidin-5-yl)-2-(3-(trifluoromethyl)phenyl)-8,9-dihydro-6H-5,9-methanopyrimido[4,5-b][1,4]diazocine-10(7H)-carboxamide] | A (EC1.5<1 μM) | A (Fold activation ≥150%) |
| O=C(Nc1nccc(OC[C@@H](O)CO)n1)N1c2nc(-c3cccc(C(F)(F)F)c3)ncc2N2CCC[C@H]1C2 [Example 103, (9S)—N-(4-((S)-2,3-dihydroxypropoxy)pyrimidin-2-yl)-2-(3-(trifluoromethyl)phenyl)-8,9-dihydro-6H-5,9-methanopyrimido[4,5-b][1,4]diazocine-10(7H)-carboxamide] | B (EC1.5 1-25 μM) | A (Fold activation ≥150%) |
| O=C(Nc1cnc(OC[C@H](O)CO)nc1)N1c2nc(-c3cccc(C(F)(F)F)c3)ncc2N2CCC[C@H]1C2 [Example 104, (9S)—N-(2-((R)-2,3-dihydroxypropoxy)pyrimidin-5-yl)-2-(3-(trifluoromethyl)phenyl)-8,9-dihydro-6H-5,9-methanopyrimido[4,5-b][1,4]diazocine-10(7H)-carboxamide] | A (EC1.5<1 μM) | A (Fold activation ≥150%) |
| O=C(Nc1ncc(OC[C@H](O)CO)cn1)N1c2nc(-c3cccc(C(F)(F)F)c3)ncc2N2CCC[C@H]1C2 [Example 105, (9S)—N-(5-((R)-2,3-dihydroxypropoxy)pyrimidin-2-yl)-2-(3-(trifluoromethyl)phenyl)-8,9-dihydro-6H-5,9-methanopyrimido[4,5-b][1,4]diazocine-10(7H)-carboxamide] | A (EC1.5<1 μM) | A (Fold activation ≥150%) |
| O=C(Nc1cnnc(OC[C@@H](O)CO)c1)N1c2nc(-c3cccc(C(F)(F)F)c3)ncc2N2CCC[C@H]1C2 [Example 108, (9S)—N-(6-((S)-2,3-dihydroxypropoxy)pyridazin-4-yl)-2-(3-(trifluoromethyl)phenyl)-8,9-dihydro-6H-5,9-methanopyrimido[4,5-b][1,4]diazocine-10(7H)-carboxamide] | A (EC1.5<1 μM) | A (Fold activation ≥150%) |
| O=C(Nc1cnnc(OC[C@H](O)CO)c1)N1c2nc(-c3cccc(C(F)(F)F)c3)ncc2N2CCC[C@H]1C2 [Example 110, (9S)—N-(6-((R)-2,3-dihydroxypropoxy)pyridazin-4-yl)-2-(3-(trifluoromethyl)phenyl)-8,9-dihydro-6H-5,9-methanopyrimido[4,5-b][1,4]diazocine-10(7H)-carboxamide] | A (EC1.5<1 μM) | A (Fold activation ≥150%) |
| Cc1nc(-c2cccc(C(F)(F)F)c2)nc2c1N1CCC[C@@H](C1)N2C(=O)Nc1nccc(OC[C@H](O)CO)n1 [Example 111, (9S)—N-(4-((R)-2,3-dihydroxypropoxy)pyrimidin-2-yl)-4-methyl-2-(3-(trifluoromethyl)phenyl)-8,9-dihydro-6H-5,9-methanopyrimido[4,5-b][1,4]diazocine-10(7H)-carboxamide] | A (EC1.5<1 μM) | A (Fold activation ≥150%) |
